The text below walks through data of patent US5374636A, “2,3-trans-disubstituted tropane compounds which have useful pharmaceutical utility” (NeuroSearch A/S, priority 1992, dated 1994).

The test system of data set [1] is serotonine (5-hydroxythryptamine, 5-HT) reuptake. Briefly: Serotonin (5-HT) reuptake inhibition. The note with it: in combination with dopamine reuptake inhibition. Type of data set: biochemical.
Data set [2] deals with abnormal stereotyped behaviour. Briefly: Classification of the abnormal stereotyped behaviour (side effect). Type of data set: in vivo, rat. An excerpt: Classification of the abnormal stereotyped behaviour.
Backward locomotion may occasionally be observed.
+=only stereotyped sniffing
++=stereotyped sniffing and episodic licking
+++=Continuous licking and/or biting gnawing

The test system of data set [3] is reuptake of dopamine in synaptosomes of rat forebmin. The data set is described as follows: Inhibition of reuptake of dopamine in synaptosomes of rat forebrain (3H-dopamine uptake). Type of data set: biochemical, rat (male Wistar). The following applies: for IC50: rat forebrain synaptosomes, 3H-dopamine 1×10^-9 M, 10 min at 37° C., read-out: Dopamine reuptake inhibiting activity (IC50).
Method: Fresh whole forebmin (at 0°-4° C.) from male Wistar rats (150-200 g) is homogenized in a glass homogenizer with a teflon pestle in 20×volumes 0.32M sucrose. The homogenate is centrifuged at 1000×g (~2900 rpm) for 10 min. The pellet is discarded and the supernatant is used for uptake assays.
The samples are thoroughly mixed and incubated 10 min at 37° C. followed by 2 min at 0° C. After incubation the samples are poured directly onto Whatman GF/C glass fibre filters under suction and immediately washed with 2×5 ml ice-cold 0.9% saline (NaCI) buffer. To the filter is added 3 ml of scintillation fluid, and the amount of radioactivity on the filters is determined by conventional liquid scintillation counting.

In data set [4] the test system is excitatory Iocomotor and rearing responses. Briefly: Classification of behavioural excitatory locomotor and rearing responses (side effect). The class given is in vivo, rat (male SPF wistar).
Method: Male SPF wistar rats weighing 200-250 g were used for the gross behavioural studies. All rats were transferred the day before the experiments to individual cages made of wire netting (floor area 21×27 cm, height 16 cm) at a room temperature of 21°-23° C. […] The behavioural elements here classified as rearing (i.e. standing up on the hindlegs) and Iocomotor activities (i.e. forward running activities) were registered, and the maximum peak effects were classified according to the following rating scale:
0=non-existent or very infrequent
++=moderate in intensity and frequency
+++=very strong, continuous and intense

As a reminder, the IC50 is the point on the concentration scale where inhibition reaches its midpoint.

As to `CN1[C@H]2CC[C@@H]1[C@H](COc1ccc(Cl)cc1)[C@@H](c1ccc(F)cc1)C2.Cl` [(1R,2R,3S)-2-(4-Chlorophenoxy-methyl)-3-(4-fluorophenyl)tropane, hydrochloride], the “serotonine (5-HT) reuptake inhibiting activity” value in data set [1] is on record as “very potent serotonine (5-hydroxythryptamine, 5-HT) reuptake inhibiting activity”. Further, in data set [2] (50 mg/kg i.p.), the “Activity (high intensity abnormal stereotyped behaviour)” value was determined as 0. Further, in data set [3], the “dopamine reuptake inhibiting activity (in words)” value is “potent dopamine reuptake inhibiting activity” and the concentration for half-maximal inhibition (IC50) was 390 nM.
Turning to `COC(=O)[C@@H]1[C@@H](c2ccc3ccccc3c2)C[C@@H]2CC[C@H]1N2C` [(1R,2R,3S)-2-carbomethoxy-3-(2-naphthyl)tropane], in data set [2] (25 mg/kg i.p.), the “Activity (high intensity abnormal stereotyped behaviour)” value is 0. Moreover, in data set [3], the half-inhibitory concentration (IC50) came to 100 nM.
In the case of `COC(=O)[C@@H]1[C@@H](c2ccc(F)cc2)C[C@@H]2CC[C@H]1N2C` [trans isomer of Win 35,428, (1R,2R,3S)-2-carbomethoxy-3-(4-fluorophenyl)tropane], in data set [4] (every relevant dosing level tested), the “side effects as measured by excitatory locomotor activity and rearing responses as well as abnormal stereotyped behaviour” value was “essentially or totally devoid of side effects”.
With `COC(=O)[C@@H]1[C@@H](c2ccc(Cl)c(Cl)c2)C[C@@H]2CC[C@H]1N2C` [(1R,2R,3S)-2-carbomethoxy-3-(3,4-dichlorophenyl)tropane], the “Activity (excitatory locomotor and rearing responses, maximum peak effect)” value in data set [4] (50 mg/kg i.p.) is listed as “+”. Moreover, the “Activity (high intensity abnormal stereotyped behaviour)” value in data set [2] (50 mg/kg i.p.) is “+++”. Further, the IC50 in data set [3] came to 16 nM.
